Earlier results as cited in patent US20060029543A1, “Treatment of B-cell lymphoma” (priority 2004, published 2006).

Details: received more than 200 milligrams per meter squared of doxorubicin

COc1cccc2c1C(=O)c1c(O)c3c(c(O)c1C2=O)C[C@@](O)(C(=O)CO)C[C@@H]3O[C@H]1C[C@H](N)[C@H](O)[C@H](C)O1 [doxorubicin]
Left ventricular dysfunction, long-term survivors affected: 8 of 57
